{
  "source": "patent US11919965B2",
  "about": "“Methods of treating multiple myeloma with bispecific anti-BCMA x anti-CD3 antibodies” (Regeneron Pharmaceuticals, Inc., priority 2019, dated 2024)",
  "key": {"[1]": {"test_system": "primary human CD138+ plasma cells", "experiment": "Autologous T cell-mediated killing of plasma cells and T cell activation (% CD25 upregulation)", "assay_type": "cell-based", "details": "for EC50: read-out: T Cell Activation (% CD25 Upregulation) CD8+ T cells EC50", "method": "(§1) The specific killing of enriched CD138^+ human or cynomolgus monkey plasma cells by unstimulated autologous T cells was assessed by flow cytometry. Human or cynomolgus bone marrow aspirates and blood were provided within 24 hours of harvest. CD138^+ plasma cells were enriched from bone marrow by positive selection using the EasySep Human CD138^+ Positive Selection kit according to the manufacturer's instructions. PBMC from whole blood were isolated by density separation. PBMC were labeled with 1 μM of VYBRANT™ CFDA-SE fluorescent tracking dye. […] At the end of the culture, surviving CD138^+ plasma cells were analyzed by flow cytometry, utilizing fixable LIVE/DEAD dye and plasma cell specific cell surface markers. Percent viability was normalized to control condition (plasma cells in the presence of PBMC only). T cell activation was assessed by flow cytometry. Activation is reported as the percentage of CD2^+/CD4^+ or CD2^+/CD8^+/CD16^− T cells expressing CD25. Percent T cell activation was normalized to control condition (plasma cells in the presence of PBMC only)."}, "[2]": {"test_system": "primary cynomolgus monkey CD138+ plasma cells", "experiment": "Autologous T cell-mediated killing of plasma cells and T cell activation (% CD25 upregulation)", "assay_type": "cell-based", "method": "as §1"}, "[3]": {"test_system": "BCMA+ MOLP-8-luciferase tumors", "experiment": "Xenogenic tumor model, i.v. MOLP-8-luciferase in PBMC-engrafted NSG mice, bioluminescence (Example 14)", "assay_type": "in vivo, mouse", "details": "4 mg/kg", "method": "To determine the in vivo efficacy of anti-BCMA×anti-CD3 bispecific antibodies (Abs), a xenogenic tumor study was performed. On day −11, immunodeficient NOD.Cg-Prkdc^scidII2rg^tm1Wjl/SzJ (NSG) mice were intraperitoneally injected with 4×10^6 human peripheral blood mononuclear cells (PBMC) from a normal, healthy donor. On day 0, the mice were intravenously administered 2×10^6 BCMA^+ MOLP-8 human multiple myeloma tumor cells that were engineered to also express firefly luciferase (MOLP-8-luciferase cells). […] The mice were administered these Abs twice more on days 3 and 7, for a total of three doses. Tumor growth was assessed over 48 days by measuring tumor bioluminescence (BLI) in anesthetized animals. As a positive control, a group of mice (n=5) was given only MOLP-8-luciferase cells, but not PBMC or antibody.\nImplantation and measurement of xenogenic tumors: On day −11, immunodeficient NOD.Cg-Prkdc^scidII2rg^tm1Wjl/SzJ (NSG) mice were intraperitoneally injected with 5×10^6 human PBMC from a normal, healthy donor. On day 0, the mice were intravenously administered 2×10^6 BCMA^+ MOLP-8-luciferase cells. […] The mice were administered these Abs twice more on days 3 and 7, for a total of three doses. Tumor growth was assessed over 48 days by measuring tumor BLI in anesthetized animals. As a positive control, a group of mice (n=5) was given only MOLP-8-luciferase cells, but not PBMC or antibody.\nMeasurement of xenogenic tumor growth: BLI imaging was used to measure tumor burden. Mice were injected IP with 150 mg/kg of the luciferase substrate D-luciferin suspended in PBS. Five minutes after this injection, BLI imaging of the mice was performed under isoflurane anesthesia using the Xenogen IVIS system. Image acquisition was carried out with the field of view at D, subject height of 1.5 cm, and medium binning level with automatic exposure time determined by the Living Image Software. BLI signals were extracted using Living Image software: regions of interest were drawn around each tumor mass and photon intensities were recorded as p/s/cm2/sr."}, "[4]": {"test_system": "patients with relapsed or refractory multiple myeloma", "experiment": "Phase 1/2 clinical study of REGN5458 monotherapy", "details": "for Complete response (CR) or stringent CR (sCR) / Overall response rate (ORR) / Partial response (PR) / Very good partial response (VGPR): preliminary results"}, "[5]": {"test_system": "Jurkat/NFATLuc.3C7 reporter cells with Daudi cells (BCMA positive)", "experiment": "Jurkat/NFATLuc reporter bioassay (T-cell activation)", "assay_type": "cell-based, human", "method": "Activity of the anti-BCMA×anti-CD3 bispecific antibodies were assessed in a Jurkat/NFATLuc reporter bioassay utilizing several cell lines with varying levels of BCMA surface expression. The Jurkat cells were engineered to express an NFAT-luciferase reporter (Jurkat/NFATLuc.3C7), and 50,000 Jurkat reporter cells were combined with 50,000 BCMA positive (Daudi, MM1-S, NCI-H929, OPM-2, RPMI-8226, MOLP-8, or Raji) or BCMA negative (HEK293) cells in Thermo Nunclon delta 96 well white microwell plates (Thermo Scientific, Cat #136102) in 50 ul of assay media (RPMI media with 10% FBS and 1% P/S/G). Three-fold serial dilutions of the BCMA×CD3 bispecific antibodies (mAb25441D or mAb25442D), or a bivalent anti-BCMA antibody (mAb21581) were immediately added in 50 uL of assay buffer. The plates were gently agitated and incubated in a 37° C., 5% CO2 incubator for 4-6 hours. NFAT-Luciferase activity was determined using Promega One-Glo (Cat #E6130) and a Perkin Elmer Envision plate reader. RLU were plotted in GraphPad Prism using a four-parameter logistic equation over a 12-point response curve to calculate EC50 values. The no antibody treatment condition for each dose-response curve is also included in the analysis as a continuation of the three-fold serial dilution and is represented as the lowest dose. The signal to noise (S:N) is determined by taking the ratio of the highest RLU on the curve to the lowest."}, "[6]": {"details": "Dose Levels 1, 2, 3 (3, 6, 12 mg; n = 24)"}, "[7]": {"details": "Dose Levels 4, 5 (24, 48 mg; n = 17)"}, "[8]": {"details": "patients with marrow plasmacytosis <50%"}},
  "note": "Where two headings read alike, the source gives them in different places.",
  "data": [
    {"substance": "REGN5458: anti-BCMA×anti-CD3 bispecific antibody: mAb21581 BCMA heavy chain, mAb7221G CD3 heavy chain and common light chain; SEQ ID NOs 126, 127, 129", "values": [
      {"measurement": "EC50", "setting": "[1]; Human Donor 1 plasma cells, autologous primary human T cells", "value": 0.214, "unit": "nM"},
      {"measurement": "T Cell Activation (% CD25 Upregulation) CD8+ T cells % Activation", "setting": "[1]; Human Donor 2 plasma cells, autologous primary human T cells, maximum", "value": 36, "unit": "%"},
      {"measurement": "EC50", "setting": "[1]; Human Donor 2 plasma cells, autologous primary human T cells", "value": 0.86, "unit": "nM"},
      {"measurement": "maximum percent CD8+ T cell activation", "setting": "[1]; donor 2", "value": 36, "unit": "%"},
      {"measurement": "T Cell Activation (% CD25 Upregulation) CD8+ T cells % Activation", "setting": "[2]; Cynomolgus Monkey Donor 1 plasma cells, autologous T cells, maximum", "value": 12, "unit": "%"},
      {"measurement": "EC50", "setting": "[2]; Cynomolgus Monkey Donor 1 plasma cells, autologous T cells, read-out: T Cell Activation (% CD25 Upregulation) CD8+ T cells EC50", "value": 22.4, "unit": "nM"},
      {"measurement": "T Cell Activation (% CD25 Upregulation) CD4+ T cells % Activation", "setting": "[2]; Cynomolgus Monkey Donor 2 plasma cells, autologous T cells, maximum", "value": 16, "unit": "%"},
      {"measurement": "EC50", "setting": "[2]; Cynomolgus Monkey Donor 2 plasma cells, autologous T cells, read-out: T Cell Activation (% CD25 Upregulation) CD4+ T cells EC50", "value": "~18.1", "unit": "nM"},
      {"measurement": "maximum percent T cell activation, CD8+ T cells", "setting": "[2]; donor 1", "value": 12, "unit": "%"},
      {"measurement": "EC50", "setting": "[2]; donor 1, read-out: EC50, CD4+ T cell activation", "value": 28.1, "unit": "nM"},
      {"measurement": "EC50", "setting": "[2]; donor 1, read-out: EC50, CD8+ T cell activation", "value": 22.4, "unit": "nM"},
      {"measurement": "maximum percent T cell activation, CD4+ T cells", "setting": "[2]; donor 2", "value": 16, "unit": "%"},
      {"measurement": "EC50", "setting": "[2]; donor 2, read-out: EC50, CD4+ T cell activation", "value": 18.1, "unit": "nM"},
      {"measurement": "EC50", "setting": "[2]; donor 2, read-out: EC50, CD8+ T cell activation", "value": 76.7, "unit": "nM"},
      {"measurement": "Radiance [p/s/cm2^2/sr] 8 days post-implantation (mean ± SEM)", "setting": "[3]", "value": "5.66E+05 ± 1.97E+04", "unit": "p/s/cm2^2/sr"},
      {"measurement": "Radiance [p/s/cm2^2/sr] 22 days post-implantation (mean ± SEM)", "setting": "[3]", "value": "1.08E+06 ± 1.71E+05", "unit": "p/s/cm2^2/sr"},
      {"measurement": "Radiance [p/s/cm2^2/sr] 24 days post-implantation (mean ± SEM)", "setting": "[3]", "value": "1.02E+06 ± 1.99E+05", "unit": "p/s/cm2^2/sr"},
      {"measurement": "Radiance [p/s/cm2^2/sr] 28 days post-implantation (mean ± SEM)", "setting": "[3]", "value": "3.56E+06 ± 6.34E+05", "unit": "p/s/cm2^2/sr"},
      {"measurement": "Radiance [p/s/cm2^2/sr] 30 days post-implantation (mean ± SEM)", "setting": "[3]", "value": "6.92E+06 ± 1.40E+06", "unit": "p/s/cm2^2/sr"},
      {"measurement": "Radiance [p/s/cm2^2/sr] 34 days post-implantation (mean ± SEM)", "setting": "[3]", "value": "2.65E+07 ± 1.36E+07", "unit": "p/s/cm2^2/sr"},
      {"measurement": "Radiance [p/s/cm2^2/sr] 37 days post-implantation (mean ± SEM)", "setting": "[3]", "value": "4.52E+07 ± 1.40E+07", "unit": "p/s/cm2^2/sr"},
      {"measurement": "tumor growth", "setting": "[3]; three doses", "value": "delayed the growth"},
      {"measurement": "Complete response (CR) or stringent CR (sCR)", "setting": "[4]; Dose Level 6 (96 mg; n = 8)", "value": "0% (0)"},
      {"measurement": "Overall response rate (ORR)", "setting": "[4]; Dose Level 6 (96 mg; n = 8)", "value": "63% (5)"},
      {"measurement": "Partial response (PR)", "setting": "[4]; Dose Level 6 (96 mg; n = 8)", "value": "0% (0)"},
      {"measurement": "Very good partial response (VGPR)", "setting": "[4]; Dose Level 6 (96 mg; n = 8)", "value": "63% (5)"},
      {"measurement": "Complete response (CR) or stringent CR (sCR)", "setting": "[4]; [6]", "value": "21% (5)"},
      {"measurement": "Overall response rate (ORR)", "setting": "[4]; [6]", "value": "29% (7)"},
      {"measurement": "Partial response (PR)", "setting": "[4]; [6]", "value": "4% (1)"},
      {"measurement": "Very good partial response (VGPR)", "setting": "[4]; [6]", "value": "4% (1)"},
      {"measurement": "Complete response (CR) or stringent CR (sCR)", "setting": "[4]; [7]", "value": "18% (3)"},
      {"measurement": "Overall response rate (ORR)", "setting": "[4]; [7]", "value": "41% (7)"},
      {"measurement": "Partial response (PR)", "setting": "[4]; [7]", "value": "0% (0)"},
      {"measurement": "Very good partial response (VGPR)", "setting": "[4]; [7]", "value": "24% (4)"},
      {"measurement": "objective response rate (ORR)", "setting": "[4]; dose level 6", "value": 62.5, "unit": "%"},
      {"measurement": "objective response rate (ORR)", "setting": "[4]; dose levels 1 to 3", "value": 29.2, "unit": "%"},
      {"measurement": "objective response rate (ORR)", "setting": "[4]; dose levels 4 and 5", "value": 41.2, "unit": "%"},
      {"measurement": "observed median duration of response", "setting": "[4]; human, in vivo", "value": 6.01, "unit": "months"},
      {"measurement": "complete response (CR) or stringent CR", "setting": "[4]; of responders", "value": 42.1, "unit": "%"},
      {"measurement": "responders achieving at least a very good partial response (VGPR)", "setting": "[4]; of responders", "value": 95, "unit": "%"},
      {"measurement": "responders with DOR ≥8 months", "setting": "[4]; of responders", "value": 36.8, "unit": "%"},
      {"measurement": "responders with duration of response (DOR) ≥4 months", "setting": "[4]; of responders", "value": 63.2, "unit": "%"},
      {"measurement": "ORR", "setting": "[4]; patients with extramedullary plasmacytomas (EMP)", "value": 14.3, "unit": "%"},
      {"measurement": "ORR", "setting": "[4]; [8]", "value": 71.4, "unit": "%"},
      {"measurement": "stringent complete response", "setting": "[4]; [8]", "value": 35.7, "unit": "%"},
      {"measurement": "very good partial response", "setting": "[4]; [8]", "value": 35.7, "unit": "%"},
      {"measurement": "ORR", "setting": "[4]; patients with marrow plasmacytosis ≥50%", "value": 9.1, "unit": "%"},
      {"measurement": "ORR", "setting": "[4]; patients without EMP", "value": 45, "unit": "%"},
      {"measurement": "complete response or stringent complete response", "setting": "[4]; patients without EMP", "value": 20, "unit": "%"},
      {"measurement": "very good partial response", "setting": "[4]; patients without EMP", "value": 22.5, "unit": "%"},
      {"measurement": "responders receiving ongoing treatment", "setting": "[4]; to date", "value": 74, "unit": "%"}
    ]},
    {"substance": "REGN5459: anti-BCMA×anti-CD3 bispecific antibody: mAb21581 BCMA heavy chain, mAb7221G20 CD3 heavy chain and common light chain; SEQ ID NOs 126, 128, 129", "values": [
      {"measurement": "S:N (highest RLU to lowest)", "setting": "[5]", "value": 25}
    ]}
  ]
}
